Reference: US5508383A, “Cyclic peptide LHRH antagonists” (Tap Holdings Inc., priority 1994, dated 1996)
Where a SMILES comes first, the peptide text is derived from it. Bridges are numbered along the chain shown (N, C = ends). [ ]: non-standard residue; d: D form. The star is where a group is joined. Propanoyl(3-(4-Cl-Ph)) = O=C(CCc1ccc(Cl)cc1)*; Phenylacetyl(4-F) = O=C(Cc1ccc(F)cc1)*; Lys(iPr) = CC(C)NCCCC[C@H](N)C(=O)O; NMeY = CN[C@@H](Cc1ccc(O)cc1)C(=O)O; Nicotinoyl = O=C(c1cccnc1)*

Target: T1, LHRH (Rattus norvegicus, UniProt P30969)
T1 construct: endogenous in cells; host or cells: pituitary cells (own knowledge of the cited method)
T1 sequence (P30969 1-327): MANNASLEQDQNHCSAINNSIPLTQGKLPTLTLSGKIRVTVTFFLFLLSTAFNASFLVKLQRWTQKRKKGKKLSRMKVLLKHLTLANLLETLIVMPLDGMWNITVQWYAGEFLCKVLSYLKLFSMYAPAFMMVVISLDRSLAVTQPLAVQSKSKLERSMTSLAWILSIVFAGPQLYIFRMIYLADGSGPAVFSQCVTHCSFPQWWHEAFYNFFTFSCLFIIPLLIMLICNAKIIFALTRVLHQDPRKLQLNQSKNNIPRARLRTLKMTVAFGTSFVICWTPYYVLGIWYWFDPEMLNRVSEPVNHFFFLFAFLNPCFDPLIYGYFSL
Test: in vitro test for LHRH antagonist potency (pA2), shift of the leuprolide response curve
Assay type: cell-based
Settings: negative logarithm of antagonist concentration required to shift the response curve produced by the agonist leuprolide to two-fold higher concentration
Procedure: Representative compounds of the present invention were evaluated in an in vitro test for LHRH antagonist potency (pA2). The test employed the method detailed in F. Haviv, et al. J. Med. Chem., 32: 2340-2344 (1989). The values of pA2 are the negative logarithms of the concentration of the particular antagonist test compound required to shift the response curve produced by the agonist leuprolide to two-fold higher concentration. (Leuprolide is the LHRH agonist having the structure 5-oxo-Pro^1 -His^2 -Trp^3 -Ser^4 -Tyr^5 -D-Leu^6 -Leu^7 -Arg^8 -Pro-^9 -NHEt and is disclosed and claimed in U.S. Pat. No. 4,005,063.) Typically pA2 values of 6.0 or greater are indicative of acceptable LHRH antagonist potency, with compounds having pA2 values of 9.0 or greater being preferred.

Compound | pA2 | Kb
Ac-D2Nal-D4ClPhe-c-{DLys-Ser-Tyr-DLys(Nicotinyl)-Leu-Lys(N-epsilon-Isopropyl)-Pro-DGlu}-NH2 [Example 8] | 9.66 | 
CC(=O)N[C@@H]1CCCCNC(=O)CC[C@H](C(N)=O)NC(=O)[C@@H]2CCCN2C(=O)[C@H](CCCCNC(C)C)NC(=O)[C@H](CC(C)C)NC(=O)[C@@H](CCCCNC(=O)c2cccnc2)NC(=O)[C@H](Cc2ccc(O)cc2)N(C)C(=O)[C@H](CO)NC1=O [Example 9, Ac-c-{DLys-Ser-NMeTyr-DLys(Nicotinyl)-Leu-Lys(N-epsilon-Isopropyl)-Pro-DGlu}-NH2] (Ac-[dK]S[NMeY][dK](Nicotinoyl)L[Lys(iPr)]P[dE]-NH2; lactam 1-8) |  | 6.17 nM
NAc-D2Nal D4ClPhe-c-{DLys-Gly-NMeTyr-DLys(Nicotinyl)-Leu-Lys(N-epsilon-Isopropyl)-Gly-DGlu}-NH2 [Example 17] | 8.29 | 
CC(C)C[C@@H]1NC(=O)[C@@H](CCCCNC(=O)c2cccnc2)NC(=O)[C@H](Cc2ccc(O)cc2)N(C)C(=O)CNC(=O)[C@H](NC(=O)CCc2ccc(Cl)cc2)CCCCNC(=O)CC[C@H](C(N)=O)NC(=O)CNC(=O)[C@H](CCCCNC(C)C)NC1=O [Example 18, 4ClPhepropionyl-c-{DLys-Gly-NMeTyr-DLys(Nicotinyl)-Leu-Lys(N-epsilon-Isopropyl)-Gly-DGlu}-NH2] ({Propanoyl(3-(4-Cl-Ph))}-[dK]G[NMeY][dK](Nicotinoyl)L[Lys(iPr)]G[dE]-NH2; lactam 1-8) |  | > 1000 nM
Ac-D2Nal-D4ClPhe-c-{Glu-Ser-NMeTyr-DLys(Nicotinyl)-Leu-Lys(N-epsilon-Isopropyl)-Pro-DOrn}-NH2 [Example 6] | 7.54 | 
CC(C)C[C@@H]1NC(=O)[C@@H](CCCCNC(=O)c2cccnc2)NC(=O)[C@H](Cc2ccc(O)cc2)N(C)C(=O)[C@H](CO)NC(=O)[C@H](NC(=O)Cc2ccc(F)cc2)CCCCNC(=O)CC[C@H](C(N)=O)NC(=O)[C@@H]2CCCN2C(=O)[C@H](CCCCNC(C)C)NC1=O [Example 10, 4F-Phenylacetyl-c-{DLys-Ser-NMeTyr-DLys(Nicotinyl)-Leu-Lys(N-epsilon-Isopropyl)-Pro-DGlu}-NH2] ({Phenylacetyl(4-F)}-[dK]S[NMeY][dK](Nicotinoyl)L[Lys(iPr)]P[dE]-NH2; lactam 1-8) |  | 724 nM
Ac-D2Nal-D4ClPhe-c-{DGlu-Ser-NMeTyr-DLys(Nicotinyl)-Leu-Lys(N-epsilon-Isopropyl)-Pro-Lys}-NH2 [Example 12] | 9.77 | 
Ac-D2Nal-D4ClPhe-c-{DLys-Ser-Tyr-DLys(Nicotinyl)-Leu-Lys(N-epsilon-Isopropyl)-Pro-Glu}-NH2 [Example 2] | 9.27 | 
Ac-D2Nal-D4ClPhe-c-{DOrn-Ser-NMeTyr-DLys(Nicotinyl)-Leu-Lys(N-epsilon-Isopropyl)-Pro-DGlu}-NH2 [Example 14] | 9.52 | 
Ac-D2Nal-D4ClPhe-c-{Lys-Ser-NMeTyr-DLys(Nicotinyl)-Leu-Lys(N-epsilon-Isopropyl)-Pro-DGlu}-NH2 [Example 3] | 8.73 | 
CC(C)C[C@@H]1NC(=O)[C@@H](CCCCNC(=O)c2cccnc2)NC(=O)[C@H](Cc2ccc(O)cc2)N(C)C(=O)[C@H](CO)NC(=O)[C@H](NC(=O)CCc2ccc(Cl)cc2)CCCCNC(=O)CC[C@H](C(N)=O)NC(=O)CNC(=O)[C@H](CCCCNC(C)C)NC1=O [Example 16, 4ClPhenylpropionyl-c-{DLys-Ser-NMeTyr-DLys(Nicotinyl)-Leu-Lys(N-epsilon-Isopropyl)-Gly-DGlu}-NH2] ({Propanoyl(3-(4-Cl-Ph))}-[dK]S[NMeY][dK](Nicotinoyl)L[Lys(iPr)]G[dE]-NH2; lactam 1-8) |  | 40.7 nM
CC(=O)N[C@@H]1CCC(=O)NCCCC[C@H](C(N)=O)NC(=O)[C@@H]2CCCN2C(=O)[C@H](CCCCNC(C)C)NC(=O)[C@H](CC(C)C)NC(=O)[C@@H](CCCCNC(=O)c2cccnc2)NC(=O)[C@H](Cc2ccc(O)cc2)N(C)C(=O)[C@H](CO)NC1=O [Example 11, Ac-c-{DGlu-Ser-NMeTyr-DLys(Nicotinyl)-Leu-Lys(N-epsilon-Isopropyl)-Pro-DLys}-NH2] (Ac-[dE]S[NMeY][dK](Nicotinoyl)L[Lys(iPr)]P[dK]-NH2; lactam 1-8) |  | 20.4 nM
Ac-D2Nal-D4ClPhe-c-{DLys-Ser-NMeTyr-DLys(Nicotinyl)-Leu-Lys(N-epsilon-Isopropyl)-Pro-DGlu}-NH2 [Example 1] | 10.16 | 
Ac-D2Nal-D4ClPhe-c-{Lys-Ser-NMeTyr-DLys(Nicotinyl)-Leu-Lys(N-epsilon-Isopropyl)-Pro-Glu}-NH2 [Example 5] | 8.2 | 
Ac-D2Nal-D4ClPhe-c-{DLys-Ser-NMeTyr-DLys(Nicotinyl)-Leu-Lys(N-epsilon-Isopropyl)-Pro-Glu}-NH2 [Example 4] | 10.05 | 
CC(C)C[C@@H]1NC(=O)[C@@H](CCCCNC(=O)c2cccnc2)NC(=O)[C@H](Cc2ccc(O)cc2)N(C)C(=O)[C@H](CO)NC(=O)[C@H](NC(=O)CCc2ccc(Cl)cc2)CCCCNC(=O)CC[C@H](C(N)=O)NC(=O)[C@@H]2CCCN2C(=O)[C@H](CCCCNC(C)C)NC1=O [Example 13, 4ClPhenylpropionyl-c-{DLys-Ser-NMeTyr-DLys(Nicotinyl)-Leu-Lys(N-epsilon-Isopropyl)-Pro-DGlu}-NH2] ({Propanoyl(3-(4-Cl-Ph))}-[dK]S[NMeY][dK](Nicotinoyl)L[Lys(iPr)]P[dE]-NH2; lactam 1-8) |  | 19.1 nM
Ac-D2Nal-D4ClPhe-c-{DGlu-Ser-NMeTyr-DLys(Nicotinyl)-Leu-Lys(N-epsilon-Isopropyl)-Pro-DLys}-NH2 [Example 7] | 9.58 | 
NAc-c-{DGlu-Gly-NMeTyr-DLys(Nicotinyl)-Leu-Lys(N-epsilon-Isopropyl)-Sar-DLys}-NH2 [Example 19] | 5.95 | 
4FPhenylacetyl-c-{DGlu-Ser-NMeTyr-DLys(Nicotinyl)-Leu-Lys(N-epsilon-Isopropyl)-Pro-DLys}-NH2 [Example 15] | 5.66 | 
